Experimental data from article PMC11351550, “Synthesis, Cytotoxicity and Antioxidant Activity Evaluation of Some Thiazolyl–Catechol Compounds” (Antioxidants, 2024).
Where two headings read alike, the source gives them in different places. Each block holds one molecule with its values, some of them ahead of it.

Legend:
[1] = DPPH radical-scavenging assay; format: biochemical; settings: 30 min in the dark, 517 nm; read-out: IC50 against DPPH•
Method: (§1) The stock solutions of the reference antioxidants (ascorbic acid, Trolox, EDTA-Na2) and compounds 3a–j were prepared by dissolving the solid powders in DMSO, obtaining 2 mM stock solutions. Following this, an additional set of solutions (0.2 mM) for each compound was obtained by dilution with DMSO. Absorption spectra of the tested compounds covering the range from 400 nm to 800 nm were recorded, indicating no absorption peaks near the wavelengths employed in the experiments. All measurements in the presented assays were made against blank samples. To quantify the activity of the compounds 3a–j, for the antiradical assays (DPPH and ABTS) and ferrous ion chelation, IC50 was calculated using Equation (1), while for the electron transfer assays (TAC, RP, FRAP and CUPRAC), the reference number of mole equivalent activity for each compound was calculated using Equation (2). (1) radical scavenging (%)=control absorbance−sample absorbance/control absorbance×100 (2) equivalents of control=sample absorbance/control absorbance
The DPPH˙ (2,2-diphenyl-1-picrylhydrazyl) radical-scavenging assay, initially reported by Brand-Williams et al., relies on transferring a hydrogen atom from the antioxidant substrate being analyzed to the stable violet radical of DPPH˙. This action converts DPPH˙ into a nonradical stable yellow compound. The reduction in absorbance of the DPPH˙ at λ = 517 nm corresponds to the quantity of neutralized reagent. To perform the DPPH assay, we took 50, 75, 100, 125, and 150 µL of each sample from their 0.2 mM stock solutions, then we adjusted the volumes with DMSO to ensure all samples reached a uniform final volume. These solutions were mixed with 1 mL of DPPH reagent and incubated in the dark for 30 min, as presented in literature reports.

[2] = ABTS radical cation decolorization assay; format: biochemical; settings: 10 min, pH 7.4, 734 nm; read-out: IC50 against ABTS•+
Method: as §1
The decolorization assay of the green ABTS^•+ (2,2′-azinobis-(3-ethylbenzothiazoline-6-sulfonic acid) to ABTS, based on the report of Re et al., was conducted following our group’s published report. The chemical stability of the ABTS^•+ reagent prior to use was checked at λ = 734 nm over one hour, ensuring a consistent absorption (approximately equal to 0.7). The reagent was prepared in potassium phosphate buffer (0.1 M, pH = 7.4) and activated overnight using MnO2 [17]. In all cuvettes, we added 100 μL of the tested compound solutions (0.2 mM) in increasing concentrations up to 200 µL and 2000 µL of the ABTS^•+ reagent. The resulting mixtures were thoroughly shaken for 10 min at room temperature, in the absence of light. The optical absorbance of the resulting mixtures was then measured by spectrophotometry at λ = 734 nm.

[3] = Total Antioxidant Capacity (TAC) assay; format: biochemical; settings: 95 °C, 1.5 h, 695 nm
Method: as §1
The Total Antioxidant Capacity (TAC) assay was conducted following the methodology outlined in our previous publication, which was based on initial reports from the literature. A volume of 10 mL of the reagent (0.6 M H2SO4, 28 mM Na3PO4 and 4 mM (NH4)6Mo7O24) and 1000 µL of the compound and standard solutions dispensed from the 2 mM stock solutions were mixed in sealed glass test tubes and incubated in a water bath at 95 °C for 1.5 h. After cooling the test tubes to room temperature, 1000 µL of each solution was diluted with 1000 µL of water. The absorbance of the solutions was then measured at λ = 695 nm.

[4] = Reducing power (RP) assay; format: biochemical; settings: 50 °C, 20 min, pH 6.6
Method: as §1
In the reducing power (RP) assay, the tested compounds performed the reduction of ferric ions from potassium ferricyanide, forming ferrocyanide, which gives a blue complex. The protocol followed is an adaptation of previously reported methodologies. In glass test tubes, 1000 µL of solutions containing compounds and standards measured from the 0.2 mM stock solutions were mixed with 400 µL of phosphate buffer (0.2 M, pH = 6.6) and 400 µL of K3[Fe(CN)6] solution (1% w/v). The tubes were sealed and incubated for 20 min in a water bath at 50 °C. After cooling to room temperature, 500 µL of trichloroacetic acid (10% w/w) was added to all test tubes The resulting mixtures were left for 0.5 h at room temperature. Subsequently, 250 µL of the resulting solutions were mixed with 140 µL of FeCl3 solution (0.1% w/v) and 1000 µL of distilled water, and the absorbance of the resulting solutions was determined at λ = 695 nm.

[5] = Ferric-Reducing Antioxidant Potential (FRAP) assay; format: biochemical; settings: pH 3.6, 593 nm
Method: as §1
The Ferric-Reducing Antioxidant Potential (FRAP) assay relies on the transfer of an electron from the antioxidant being assessed to Fe^3+, resulting in its conversion to Fe^2+. The resulting Fe^2+ ions are then chelated by 2,4,6-tripyridyl-s-triazine, giving a blue-colored complex, with an absorption maximum at λ = 593 nm. A 500 µL amount of the solutions (0.2 mM) of compounds and reference compounds was mixed with 600 µL FRAP reagent and 1200 µL acetate buffer (0.3 M, pH = 3.6), according to previous reports. The resulting solutions were mixed well in the dark, and their absorbance was measured spectrophotometrically.

[6] = CUPRAC (CUPric-Reducing Antioxidant Capacity) assay; format: biochemical; settings: 30 min, 450 nm
Method: as §1
The electron-donating capacity of compounds was assessed using the CUPRAC (CUPric-Reducing Antioxidant Capacity) method. The protocol for this assay is a modification of the reports of Alam et al., Özyürek et al., and Apak et al.. Volumes of 250 µL of CuCl2 10 mM, 1 mL of ammonium acetate buffer 1 M, and 250 µL of 7.5 mM neocuproine in ethanol were mixed with 125 µL of samples and reference compound solutions (0.2 mM). The mixtures were shaken for 30 min in the dark; after that, their absorbance was determined spectrophotometrically at λ = 450 nm.

[7] = Ferrous ion chelation assay (ferrozine); format: biochemical; design: key: - represents negligible activity
Method: as §1
To evaluate the ability of compounds to chelate ferrous ions, an assay was performed using an adaptation of Dinis et al.’s initial report. The solutions of the tested compounds (2 mM) were mixed well with 500 µL of FeSO4 (0.125 mM), and 500 µL of ferrozine 0.315 mM. After 10 min, the absorbance of the samples was determined spectrophotometrically at λ = 562 nm. EDTA-Na2 was used as a positive control, due to its exceptional ion chelation properties.

[8] = tested on: human pulmonary malignant cells (A549); assay: Alamar Blue cytotoxicity assay, A549 cells; format: cell-based; settings: for IC50: 48 h exposure, Alamar Blue, read-out: IC50 (±SD) A549; for Selectivity Index: ratio between the calculated IC50 on BJ and A549 cells, 48 h
Method: (§2) BJ cells were maintained in Dulbecco’s modified Eagle’s medium (DMEM) with low glucose (1 g/L), while the A549 cells were seeded in DMEM with high glucose (5 g/L). All media were supplemented with 10% fetal bovine serum (FBS) and 1% Penicillin/Streptomycin. […] Cellular media were refreshed every other day. Cells were either subcultured or used in experiments once they reached a confluency of 80–90%.
(§3) The cytotoxicity of the synthesized compounds was evaluated by Alamar Blue (AB) assays performed on both cell lines, A549 and BJ, after a 48 h exposure, as previously reported.
(§4) Briefly, approximately 7000 A549 cells and 4000 normal BJ cells were seeded in 100 µL cellular media in 96-well plates to achieve a confluency of 70–80% at the end of the experiment and left to attach overnight before exposure. […] Post-exposure, the media were removed, and the AB assay was performed, with cells being incubated with a 200 µM solution of resazurin for 4 h. The obtained fluorescence was measured at λexcitation = 530/25; λemission = 590/35.
(§5) The experiments included three biological replicates, each one including three technical replicates. The negative control (NC) consisted of cells exposed to a cell culture medium containing 0.2% DMSO and was used for data normalization (100%).

[9] = tested on: normal human foreskin fibroblasts (BJ); assay: Alamar Blue cytotoxicity assay, BJ cells; format: cell-based; settings: for IC50: 48 h exposure, Alamar Blue
Method: as §2, §3, §4, §5

SMILES: O=C1O[C@H]([C@@H](O)CO)C(O)=C1O [Ascorbic acid, reference compound]
IC50 [1]: 53.5 µM

SMILES: O=C([O-])CN(CCN(CC(=O)[O-])CC(=O)O)CC(=O)O.[Na+].[Na+] [EDTA–Na2, EDTA-Na2, reference compound]
ferrous ion chelation percent ([7]; 0.25 µM): 47.21% | ferrous ion chelation percent ([7]; 0.5 µM): 55.24% | ferrous ion chelation percent ([7]; 1 µM): 73.41% | ferrous ion chelation percent ([7]; 1.5 µM): 86.52% | ferrous ion chelation percent ([7]; 2 µM): 96.20%

SMILES: Cc1c(C)c2c(c(C)c1O)CCC(C)(C(=O)O)O2 (stereo not drawn) [Trolox, reference compound]
IC50 [1]: 38.1 µM | IC50 [2]: 15.9 µM

Now from value to molecule, other results behind:

IC50 [1]: 51.3 µM | IC50 [2]: 12 µM
SMILES: Cc1nc(-c2ccc(O)c(O)c2)cs1 [Compound 3a]
TAC Eq Ascorbic Acid [3]: 0.38 Eq Ascorbic Acid | RP Eq Ascorbic Acid [4]: 1.73 Eq Ascorbic Acid | RP Eq Trolox [4]: 1.44 Eq Trolox | FRAP Eq Trolox [5]: 0.95 Eq Trolox | CUPRAC Eq Trolox [6]: 3.17 Eq Trolox | ferrous ion chelation percent ([7]; 0.25 µM): - | ferrous ion chelation percent ([7]; 0.5 µM): - | ferrous ion chelation percent ([7]; 1 µM): - | ferrous ion chelation percent ([7]; 1.5 µM): - | ferrous ion chelation percent ([7]; 2 µM): - | IC50 [8]: 31.5 µM | Selectivity Index [8]: >3.17 | toxicity on BJ cells ([9]; 48 h, result in words): no significant toxicity on BJ cells | IC50 [9]: > 100 µM

IC50 [1]: 50.2 µM | IC50 [2]: 14 µM
SMILES: Oc1ccc(-c2csc(-c3ccccc3)n2)cc1O [Compound 3b]
TAC Eq Ascorbic Acid [3]: 1.00 Eq Ascorbic Acid | RP Eq Ascorbic Acid [4]: 1.60 Eq Ascorbic Acid | RP Eq Trolox [4]: 1.33 Eq Trolox | FRAP Eq Trolox [5]: 1.07 Eq Trolox | CUPRAC Eq Trolox [6]: 2.27 Eq Trolox | ferrous ion chelation percent ([7]; 0.25 µM): - | ferrous ion chelation percent ([7]; 0.5 µM): - | ferrous ion chelation percent ([7]; 1 µM): - | ferrous ion chelation percent ([7]; 1.5 µM): - | ferrous ion chelation percent ([7]; 2 µM): - | IC50 [8]: 8.91 µM | Selectivity Index [8]: 8.82 | IC50 [9]: 78.6 µM

IC50 [1]: 47.8 µM | IC50 [2]: 15.7 µM
SMILES: Oc1ccc(-c2csc(-c3ccc(Cl)cc3)n2)cc1O [Compound 3c]
TAC Eq Ascorbic Acid [3]: 0.83 Eq Ascorbic Acid | RP Eq Ascorbic Acid [4]: 1.47 Eq Ascorbic Acid | RP Eq Trolox [4]: 1.22 Eq Trolox | FRAP Eq Trolox [5]: 1.10 Eq Trolox | CUPRAC Eq Trolox [6]: 2.38 Eq Trolox | ferrous ion chelation percent ([7]; 0.25 µM): - | ferrous ion chelation percent ([7]; 0.5 µM): - | ferrous ion chelation percent ([7]; 1 µM): - | ferrous ion chelation percent ([7]; 1.5 µM): - | ferrous ion chelation percent ([7]; 2 µM): - | IC50 [8]: 8.16 µM | Selectivity Index [8]: 4.39 | IC50 [9]: 35.8 µM

IC50 [1]: 48.3 µM | IC50 [2]: 12.6 µM
SMILES: Oc1ccc(-c2csc(-c3ccc(Br)cc3)n2)cc1O [Compound 3d, 4-(2-(4-bromophenyl)thiazol-4-yl)benzene-1,2-diol]
TAC Eq Ascorbic Acid [3]: 0.71 Eq Ascorbic Acid | RP Eq Ascorbic Acid [4]: 1.63 Eq Ascorbic Acid | RP Eq Trolox [4]: 1.35 Eq Trolox | FRAP Eq Trolox [5]: 1.09 Eq Trolox | CUPRAC Eq Trolox [6]: 2.62 Eq Trolox | ferrous ion chelation percent ([7]; 0.25 µM): - | ferrous ion chelation percent ([7]; 0.5 µM): - | ferrous ion chelation percent ([7]; 1 µM): - | ferrous ion chelation percent ([7]; 1.5 µM): - | ferrous ion chelation percent ([7]; 2 µM): - | IC50 ([8]; Homo sapiens, A549): 6.08 µM | Selectivity Index [8]: 5.66 | IC50 ([9]; Homo sapiens, Fibroblast): 34.4 µM

IC50 [1]: 46.8 µM | IC50 [2]: 13.9 µM
SMILES: Cc1cccc(-c2nc(-c3ccc(O)c(O)c3)cs2)c1 [Compound 3e, 4-(2-(m-tolyl)thiazol-4-yl)benzene-1,2-diol]
TAC Eq Ascorbic Acid [3]: 0.91 Eq Ascorbic Acid | RP Eq Ascorbic Acid [4]: 1.64 Eq Ascorbic Acid | RP Eq Trolox [4]: 1.37 Eq Trolox | FRAP Eq Trolox [5]: 1.07 Eq Trolox | CUPRAC Eq Trolox [6]: 3.13 Eq Trolox | ferrous ion chelation percent ([7]; 0.25 µM): - | ferrous ion chelation percent ([7]; 0.5 µM): - | ferrous ion chelation percent ([7]; 1 µM): - | ferrous ion chelation percent ([7]; 1.5 µM): - | ferrous ion chelation percent ([7]; 2 µM): - | IC50 ([8]; Homo sapiens, A549): 6.46 µM | Selectivity Index [8]: 7.23 | IC50 ([9]; Homo sapiens, Fibroblast): 46.8 µM

IC50 [1]: 54.6 µM | IC50 [2]: 13.4 µM
SMILES: COc1cc(-c2nc(-c3ccc(O)c(O)c3)cs2)cc(OC)c1OC [Compound 3f, 4-(2-(3,4,5-trimethoxyphenyl)thiazol-4-yl)benzene-1,2-diol]
TAC Eq Ascorbic Acid [3]: 1.22 Eq Ascorbic Acid | RP Eq Ascorbic Acid [4]: 1.75 Eq Ascorbic Acid | RP Eq Trolox [4]: 1.46 Eq Trolox | FRAP Eq Trolox [5]: 1.06 Eq Trolox | CUPRAC Eq Trolox [6]: 3.05 Eq Trolox | ferrous ion chelation percent ([7]; 0.25 µM): - | ferrous ion chelation percent ([7]; 0.5 µM): - | ferrous ion chelation percent ([7]; 1 µM): - | ferrous ion chelation percent ([7]; 1.5 µM): - | ferrous ion chelation percent ([7]; 2 µM): - | IC50 ([8]; Homo sapiens, A549): 8.76 µM | Selectivity Index [8]: 9.43 | IC50 ([9]; Homo sapiens, Fibroblast): 82.6 µM
